Patent publication US3954793A, “1-(2-Propynyl)-1 H-indazole compounds” (priority 1973, dated 1976)

Legend:
houseflies = experiment: topical application with Diazinon, Table XXVII (strain not given); type: in vivo; details: for mortality at 10 µg/fly: Musca domestica, topical, 24 h, Diazinon 0, synergist 10 μg/fly, read-out: percent kill after 24 hours, synergist alone (Table XXVII)
CH strain houseflies = experiment: spray application of pyrethrum, percent knockdown as a function of time; type: in vivo; details: pyrethrum 100 + synergist 100 mg/cc
Method: The average percent knockdown of CH strain flies, as a function of time, resulting from spray application of pyrethrum, alone and with synergists, are given in Table XXXXIII. Duplicate tests were performed using 50 CH strain houseflies per test. Test solutions of 100 mg and 200mg of pyrethrum per cc of acetone, 200 mg of synergist per cc of acetone, and a mixture of 100 mg of pyrethrum and 100 mg of synergist per cc of acetone were prepared. The fifty CH strain houseflies were put in a 40 liter spray chamber and 1 cc of the test solution was sprayed into the test chamber with a spray pistol. The synergists alone at 200 mg/cc caused no knockdown.

SMILES	percent kill after 24 hours, with Diazinon (Table XXVII) (houseflies; Diazinon 5 + synergist 10 μg/fly) [%]	mortality at 10 µg/fly (houseflies) [%]	average percent knockdown, pyrethrum with synergist (CH strain houseflies; 5 minutes) [%]	average percent knockdown, pyrethrum with synergist (CH strain houseflies; 10 minutes) [%]	average percent knockdown, pyrethrum with synergist (CH strain houseflies; 15 minutes) [%]	average percent knockdown, pyrethrum with synergist (CH strain houseflies; 20 minutes) [%]	average percent knockdown, pyrethrum with synergist (CH strain houseflies; 25 minutes) [%]	average percent knockdown, pyrethrum with synergist (CH strain houseflies; 30 minutes) [%]	average percent knockdown, pyrethrum with synergist (CH strain houseflies; 40 minutes) [%]	average percent knockdown, pyrethrum with synergist (CH strain houseflies; 50 minutes) [%]	average percent knockdown, pyrethrum with synergist (CH strain houseflies; 60 minutes) [%]
C#CCON=C(C)c1ccc(Cl)cc1 [I-D]	100	0	6	15	26	39	52	60	86	87	88
C#CCON=Cc1ccc(Cl)cc1Cl [I-G]		0	7	12	31	36	59	66	89	93	94
C#CCON=Cc1cccc2ccccc12 [I-I]		0	4	7	19	29	40	49	57	86	92
C#CCOCc1c(Cl)ccc(Cl)c1Cl [II-E]			5	9	17	44	55	59	77	93	95
